Read-outs that look alike come from different tables or passages of the source.
Experiments:
HIV-1 IIIB = test: Cell protection assay (MTT dye reduction): acute infection of MT-2 cells with HIV-1 IIIB; format: cell-based, HIV-1 strain IIIB (in human T cell line MT-2); conditions: for Therapeutic: therapeutic index TC50/ED50, MT-2 cells, 10080 min
Method: (§1) The CEM-SS and MT-2 human T cell lines and HIV-1 strains RF and IIIB were obtained from the AIDS Research and Reference Program, Division of AIDS, NIAID, and NIH.
(§2) The inhibitory effects of each agent on HIV-1 replication were measured by the MTT dye reduction method (Alley, M. C. et al., Cancer Res. 48: 589-601 (1988)). Compounds were dissolved in DMSO at a concentration of 40 mg/ml then diluted 1:200 in culture medium (RPMI, supplemented with 10% fetal bovine serum). From each diluted stock, 100 μl was added to a 96-well plate and serial half-log dilutions were prepared. In separate tubes, MT-2 cells and CEM-SS cells were infected with HIV-1 IIIB or HIV-1 RF at a multiplicity of infection (m.o.i.) of 0.01 and 0.03, respectively. Following a 4-hour adsorption period, […] of infected or uninfected cells were added to the wells of the drug containing plate to give a final concentration of 1×10^4 cells/well. Six days (CEM-SS cells) or 7 days (MT-2 cells) later, MTT (5 mg/ml) was added to test plates and the amount of formazan produced was quantified spectrophotometrically at 570 nm. Data were expressed as the percentage of formazan produced in drug-treated cells compared to formazan produced in wells of uninfected, drug-free cells. The EDS50 was calculated as the concentration of drug that increased the percentage of formazan production in infected, drug-treated cells to 50% of that produced by uninfected, drug-free cells. Cytotoxicity (TC50) was calculated as the concentration of drug that decreased the percentage of formazan produced in uninfected, drug-treated cells to 50% of that produced in uninfected, drug-free cells. The therapeutic index (TI) was calculated by dividing the cytotoxicity (TC50) by the antiviral efficacy (ED50).

[1] = Cytotoxicity in uninfected CEM-SS cells (MTT); format: cell-based; conditions: human
Method: as §1, §2

HIV-1 RF = test: Cell protection assay (MTT dye reduction): acute infection of CEM-SS cells with HIV-1 RF; format: cell-based, HIV-1 strain RF (in human T cell line CEM-SS); conditions: for EC95: read-out: ED95; for Therapeutic index: TC50/ED50, CEM-SS cells, 8640 min
Method: as §1, §2

[2] = Cytotoxicity in uninfected MT-2 cells (MTT); format: cell-based; conditions: human
Method: as §1, §2

HIV-1 protease (Q7S) = molecular target: T1, HIV-1 protease (Q7S) (Human immunodeficiency virus type 1 group M subtype B, UniProt P03366, Q507S); test: Tight-binding kinetics assay, HIV-1 protease inhibition (modified chromogenic assay); format: biochemical, HIV-1 (viral strain IIIB)
T1 construct: HIV-1 protease gene was isolated from the viral strain IIIB; made in house; host or cells: E. coli BL21(DE3), plasmid pGZ/HP-19Q7S#9
Method: Proteolytic activity of purified HIV-1 protease was measured using a modified chromogenic assay developed by Richards at al. (Richards, A. D. et al. J. Biol. Chem., 256, 773-7736 (1990)). […] The assay was carried out in 0.5 M NaCl, 50 mM MES pH 5.6, 5 mM DDT, and 2% DMSO at 37° C. Cleavage of the scissile bond between leucine and paranitro-phenylalanine (Phe para-NO2) was assayed by spectrophotometric monitoring of the decrease on absorbance at 305 nm.

[3] = Metabolite obtained from the plasma of patients; format: in vivo; conditions: plasma of patients administered the N-t-butylcarboxamide methanesulfonic acid salt of U.S. Pat. No. 5,484,926
Text: A process for making compound 21 is provided below.

[4] = Human immunodeficiency virus 1, MT2, 168 h, MT-2 cells, HIV-1 IIIB, m.o.i. 0.01, 7 days, read-out: ED50 (the source's name)
[5] = Human immunodeficiency virus 1, 144 h, CEM-SS cells, HIV-1 RF, m.o.i. 0.03, 6 days, read-out: ED50 (the source's name)
[6] = Human immunodeficiency virus 1, 144 h, CEM-SS cells, HIV-1 RF, m.o.i. 0.03, 6 days
[7] = uninfected CEM-SS cells, 6 days, read-out: TC50
[8] = uninfected MT-2 cells, 7 days, read-out: TC50

Row | Molecule | EC50 (HIV-1 IIIB; [4]) [µM] | Therapeutic (HIV-1 IIIB; HIV-1 IIIB) | CC50 at 144 h ([1]; cem-ss cells) [µM] | EC50 (HIV-1 RF; [5]) [µM] | EC95 (HIV-1 RF; [6]) [µM] | Therapeutic index (HIV-1 RF; HIV-1 RF) | CC50 at 168 h ([2]; mt-2 cells) [µM] | EC50 (HIV-1 IIIB; Human immunodeficiency virus 1, IIIB, MT2, 168 h, read-out: ED50) [µM] | CC50 at 144 h [1, 7] [µM] | EC50 (HIV-1 RF; Human immunodeficiency virus 1, CEM-SS, 144 h, read-out: ED50) [µM] | EC95 (HIV-1 RF; Human immunodeficiency virus 1, CEM-SS, 144 h) [µM] | CC50 at 168 h [2, 8] [µM] | Ki (HIV-1 protease (Q7S); tight binding kinetics, 200 uM substrate, pH 5.6, 37° C., Morrison fit) [µM] | obtained as a metabolite [3] | Km (HIV-1 protease (Q7S); substrate, Q7S HIV-1 protease, 0.5 M NaCl, 50 mM MES pH 5.6, 2% DMSO, 37° C., read-out: Michaelis constant (Km)) [µM]
1 | Nc1ccn([C@H]2CC[C@@H](CO)O2)c(=O)n1 [ddC, dideoxycytidine] | 5.92 | 30 | 37.7 | 0.0947 | 0.142 | 398 | 176 |  |  |  |  |  |  |  | 
2 | Cc1cn([C@H]2C[C@H](N=[N+]=[N-])[C@@H](CO)O2)c(=O)[nH]c1=O [AZT, azidothymidine] |  | 254 |  |  |  | > 7161 |  | 0.431 | > 374 | 0.0523 | 0.543 | 109 |  |  | 
3 | Cc1c(O)cccc1C(=O)NC(CSc1ccccc1)C(O)CN1CC2CCCCC2CC1C(=O)NC(C)(C)CO (stereo not drawn) [Compound 21, [3S-[2(2S*,3S*),3 alpha,4abeta,8abeta]]-N-(1,1-dimethyl-2-hydroxyethyl)decahydro-2-[2-hydroxy-3-[(3-hydroxy-2-methylbenzoyl)amino]-4-(phenylthio)butyl]-3-isoquinolinecarboxamide] | 0.0856 | 1082 |  | 0.0342 | 0.154 | 2825 |  |  | 96.6 |  |  | 92.6 | 0.0056 ± 0.00091 | obtained as a metabolite from the plasma of patients | 
4 | His-Lys-Ala-Arg-Val-Leu-Phe(paraNO2)-Glu-Ala-Nle-Ser-NH2 |  |  |  |  |  |  |  |  |  |  |  |  |  |  | 59 ± 17

Source: US6001851A, “HIV protease inhibitors” (Agouron Pharmaceuticals, Inc., priority 1998, dated 1999)
